This experiment addresses recombinant human MGAT2 (Homo sapiens (Human), UniProt Q3SYC2). Briefly: Measurement of human MGAT2 inhibitory activity. It is filed as biochemical. The note with it: recombinant human MGAT2 membrane fraction (Sf-9); 2-Oleoylglycerol and Oleoyl-CoA substrates; 1 hour at room temperature; Diolein detected by RapidFire Q-TOF MS. From the text:
A full-length human MGAT2 gene to which a Flag-tag had been added at the N-terminal was inserted into pFastBac (from Invitrogen). A recombinant baculovirus was produced in accordance with the protocol for a Bac-to-Bac baculovirus expression system (produced by Invitrogen), and Sf-9 cells were infected therewith. The cells were collected and sonicated, and then the membrane fraction was collected through centrifugation.
Solutions of the compounds of the present invention in DMSO were each aliquoted into 0.2-μL portions in a 384-well polystyrene microplate produced by Corning Incorporated, and 5 μL of an enzyme solution prepared with an assay buffer (100 mmol/L phosphate buffer (pH 7.4) containing 2 mmol/L DTT) and 5 μL of a substrate solution (100 mmol/L phosphate buffer (pH 7.4), 30 μmol/L 2-Oleoylglycerol, 10 μmol/L Oleoyl-CoA) were added thereto, and the resultant was stirred and centrifuged, and incubated in a moist chamber at room temperature for 1 hour. […] Diolein as a reaction product (P) of 2-Oleoylglycerol as the substrate and an ammonium adduct ion of the IS were detected, and the peak intensity ratio, P/IS, was calculated from the peak heights to evaluate the inhibitory activity. […] The inhibitory activity was calculated from the formula below with TIBCO Spotfire (produced by TIBCO Software Inc.): Inhibitory activity (%)=[1−{Sample−Control(−)}/{Control(+)−Control(−))}]*100 where Sample indicates a peak intensity ratio: P/IS, when the compound of the present invention was added.
Chain of recombinant human MGAT2 (Q3SYC2 whole entry): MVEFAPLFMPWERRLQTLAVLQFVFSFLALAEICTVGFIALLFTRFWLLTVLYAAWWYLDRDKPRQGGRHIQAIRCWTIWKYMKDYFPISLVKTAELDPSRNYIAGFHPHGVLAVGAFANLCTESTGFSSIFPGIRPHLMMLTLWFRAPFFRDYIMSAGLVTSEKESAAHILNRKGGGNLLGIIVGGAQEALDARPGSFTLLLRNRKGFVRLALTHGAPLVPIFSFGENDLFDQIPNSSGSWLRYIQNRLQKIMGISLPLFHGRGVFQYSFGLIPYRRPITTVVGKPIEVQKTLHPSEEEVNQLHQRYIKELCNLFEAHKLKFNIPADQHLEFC
As to `CS(=O)(=O)CC(=O)NCC1=C(c2ccc(C(F)F)cn2)C[C@](c2ccccc2)(C(F)(F)F)NC1=O` [Compound I-115], the IC50 is 110 nM.

For `COc1ccc(C2=C(CNC(=O)C(C)(C)O)C(=O)N[C@@](c3ccc(OCCCC(F)(F)F)cc3)(C(F)(F)F)C2)nc1` [Compound I-41], the IC50 was 75 nM.

For `Cc1ccc(C2=C(CNC(=O)C3CS(=O)(=O)C3)C(=O)N[C@@](c3ccc(OCCCC(F)(F)F)cc3)(C(F)(F)F)C2)nc1` [Compound I-29], the IC50 was 18 nM.

`CC(C)(O)c1ccc(C2=C(CNC(=O)C3CS(=O)(=O)C3)C(=O)N[C@@](c3ccc(OCCCC(F)(F)F)cc3)(C(F)(F)F)C2)nc1` [Compound I-48]: the IC50 is 3.2 nM.

As to `COc1ccc(C2=C(CNC(=O)OC(C)C)C(=O)N[C@@](c3ccc(OCCCC(F)(F)F)cc3)(C(F)(F)F)C2)nc1` [Compound I-33], the IC50 was 340 nM.

Take `CC(C)(C)OC(=O)N1CC(C(=O)NCC2=C(c3ccc(C(F)F)cn3)C[C@](c3ccc(OCCCC(F)(F)F)cc3)(C(F)(F)F)NC2=O)C1` [Compound I-64]: the IC50 was determined as 14 nM.

In the case of `C=C(C)c1ccc(C2=C(CNC(=O)CS(C)(=O)=O)C(=O)N[C@](c3ccc(OCCCC(F)(F)F)cc3)(C(F)(F)F)C2)nc1` [Compound I-73], the IC50 was found to be 77 nM.

Turning to `CC(C)(C(=O)NCC1=C(c2ccc(C(F)F)cn2)C[C@](c2ccc(OCCCC(F)(F)F)cc2)(C(F)(F)F)NC1=O)S(C)(=O)=O` [Compound I-80], the IC50 was 990 nM.

`Cc1ccc(C2=C(CNC(=O)CC(F)(F)F)C(=O)N[C@@](c3ccc(OCCCC(F)(F)F)cc3)(C(F)(F)F)C2)nc1` [Compound I-26]: the IC50 stood at 2.3 nM.

In the case of `O=C1N[C@@](c2ccc(OCCCC(F)(F)F)cc2)(C(F)(F)F)CC(c2ccc(C(F)F)cn2)=C1CNC(=O)C1CNC1` [Compound I-65], the IC50 stood at 280 nM.

With `CC(C(=O)NCC1=C(c2ccc(C(F)F)cn2)C[C@](c2ccc(OCCCC(F)(F)F)cc2)(C(F)(F)F)NC1=O)S(C)(=O)=O` (stereo partly shown) [Compound I-85], the IC50 is 24 nM.

As to `Cc1ccc(C2=C(CNS(C)(=O)=O)C(=O)N[C@@](c3ccc(OCCCC(F)(F)F)cc3)(C(F)(F)F)C2)cc1` [Compound I-1], the IC50 was 21 nM.

On to `CS(=O)(=O)CC(=O)NCC1=C(c2ccc(C(F)F)cn2)C[C@](c2ccc(C(F)(F)F)cc2)(C(F)(F)F)NC1=O` [Compound I-75], for which the IC50 came to 78 nM.

Take `CC(=O)NCC1=C(c2ccc(C(C)C)cn2)C[C@](c2ccc(OCCCC(F)(F)F)cc2)(C(F)(F)F)NC1=O` [Compound I-35]: the IC50 came out at 18 nM.

Consider `COc1ccc(C2=C(CNS(=O)(=O)CC#N)C(=O)N[C@@](c3ccc(OCCCC(F)(F)F)cc3)(C(F)(F)F)C2)nc1` [Compound I-20], for which the IC50 turned out to be 35 nM.

On to `CC(C)c1ccc(C2=C(CNC(=O)CC(=O)OC(C)(C)C)C(=O)N[C@@](c3ccc(OCCCC(F)(F)F)cc3)(C(F)(F)F)C2)nc1` [Compound I-54], for which the IC50 came out at 82 nM.

`CS(=O)(=O)CC(=O)NCC1=C(c2ncc(C3CC3)s2)C[C@](c2ccc(OCCCC(F)(F)F)cc2)(C(F)(F)F)NC1=O` [Compound I-69]: the IC50 came to 43 nM.

Turning to `Cc1ccc(C2=C(CNC(=O)CC#N)C(=O)N[C@@](c3ccc(OCCCC(F)(F)F)cc3)(C(F)(F)F)C2)nc1` [Compound I-30], the IC50 is 12 nM.

For `CC(C)c1ccc(C2=C(CNC(=O)C3CS(=O)(=O)C3)C(=O)N[C@@](c3ccc(OCCCC(F)(F)F)cc3)(C(F)(F)F)C2)nc1` [Compound I-44], the IC50 was found to be 9.2 nM.

In the case of `CS(=O)(=O)CC(=O)NCC1=C(c2ccc(C(F)F)cn2)C[C@](c2ccc(CCC(F)(F)F)cc2)(C(F)(F)F)NC1=O` [Compound I-86], the IC50 is 1.9 nM.

Take `Cc1ccc(C2=C(CNC(=O)CO)C(=O)N[C@@](c3ccc(OCCCC(F)(F)F)cc3)(C(F)(F)F)C2)nc1` [Compound I-31]: the IC50 came to 70 nM.

As for `CS(=O)(=O)CC(=O)NCC1=C(c2ccc(C(F)F)cn2)C[C@](c2ccc(C3CC3)cc2)(C(F)(F)F)NC1=O` [Compound I-88], the IC50 turned out to be 21 nM.

Regarding `CS(=O)(=O)CC(=O)NCC1=C(c2ccc(Br)cn2)C[C@@](c2ccc(OCCCC(F)(F)F)cc2)(C(F)(F)F)NC1=O` [Compound I-71], the IC50 worked out at 940 nM.

For the molecule `Cc1ccc(C2=C(CNS(N)(=O)=O)C(=O)N[C@@](c3ccc(OCCCC(F)(F)F)cc3)(C(F)(F)F)C2)nc1` [Compound I-5], the IC50 came to 230 nM.

Consider `COc1ccc(C2=C(CNC(=O)C3CS(=O)(=O)C3)C(=O)N[C@@](c3ccc(OCCCC(F)(F)F)cc3)(C(F)(F)F)C2)nc1` [Compound I-46], for which the IC50 was 62 nM.

As for `COC/C=C/c1ccc([C@]2(C(F)(F)F)CC(c3ccc(OC(F)F)cn3)=C(CNC(=O)CS(C)(=O)=O)C(=O)N2)cc1` [Compound I-102], the IC50 amounted to 21 nM.

`C=C(C)c1ccc(C2=C(CNC(=O)CS(C)(=O)=O)C(=O)N[C@@](c3ccc(OCCCC(F)(F)F)cc3)(C(F)(F)F)C2)nc1` [Compound I-72]: the IC50 is 1 nM.

On to `O=C1N[C@@](c2ccc(OCCCC(F)(F)F)cc2)(C(F)(F)F)CC(c2ccc(C(F)F)cn2)=C1CNC(=O)C1(F)CNC1` [Compound I-67], for which the IC50 is 40 nM.

In the case of `CS(=O)(=O)CC(=O)NCC1=C(c2ccc(C(F)F)cn2)C[C@](c2ccc(OC(F)(F)F)cc2)(C(F)(F)F)NC1=O` [Compound I-90], the IC50 was 27 nM.

Take `CS(=O)(=O)CC(=O)NCC1=C(c2ccc(C(F)F)cn2)C[C@](c2ccc(Br)cc2)(C(F)(F)F)NC1=O` [Compound I-94]: the IC50 was 59 nM.

In the case of `CC(C(=O)NCC1=C(c2ccc(C(F)F)cn2)C[C@](c2ccc(OCCCC(F)(F)F)cc2)(C(F)(F)F)NC1=O)S(C)(=O)=O` (stereo partly shown) [Compound I-83], the IC50 is 22 nM.

For the molecule `COC(=O)NCC1=C(c2ccc(C)cn2)C[C@](c2ccc(OCCCC(F)(F)F)cc2)(C(F)(F)F)NC1=O` [Compound I-7], the IC50 turned out to be 150 nM.

Turning to `Cc1ccc(C2=C(CNC(=O)c3ccno3)C(=O)N[C@@](c3ccc(OCCCC(F)(F)F)cc3)(C(F)(F)F)C2)nc1` [Compound I-27], the IC50 came to 2.2 nM.

Take `Cc1ccc(C2=C(CNS(C)(=O)=O)C(=O)N[C@@](c3ccc(OCCCC(F)(F)F)cc3)(C(F)(F)F)C2)nc1` [Compound I-3]: the IC50 is 120 nM.

Regarding `COc1ccc(C2=C(CNS(=O)(=O)c3ccccc3)C(=O)N[C@@](c3ccc(OCCCC(F)(F)F)cc3)(C(F)(F)F)C2)nc1` [Compound I-23], the IC50 was 750 nM.

Regarding `COc1ccc(C2=C(CNC(C)=O)C(=O)N[C@@](c3ccc(OCCCC(F)(F)F)cc3)(C(F)(F)F)C2)nc1` (racemic) [Compound I-11], the IC50 was 110 nM.

Consider `CC(C)c1ccc(C2=C(CNC(=O)CN(C)C)C(=O)N[C@@](c3ccc(OCCCC(F)(F)F)cc3)(C(F)(F)F)C2)nc1` [Compound I-61], for which the IC50 came out at 27 nM.

`CC(C)c1ccc(C2=C(CNC(=O)C3COC3)C(=O)N[C@@](c3ccc(OCCCC(F)(F)F)cc3)(C(F)(F)F)C2)nc1` [Compound I-53]: the IC50 turned out to be 11 nM.

Regarding `COc1ccc(C2=C(CNC(=O)CS(C)(=O)=O)C(=O)N[C@@](c3ccc(OCCCC(F)(F)F)cc3)(C(F)(F)F)C2)nc1` [Compound I-12], the IC50 worked out at 2.5 nM.

For the molecule `CC(C)c1ccc(C2=C(CNC(=O)CC(=O)O)C(=O)N[C@@](c3ccc(OCCCC(F)(F)F)cc3)(C(F)(F)F)C2)nc1` [Compound I-55], the IC50 came out at 160 nM.

By IC50 is commonly meant the concentration that gives 50% inhibition.

Source of the values: patent US10335401B2, “Non-aromatic heterocyclic derivative having MGAT2 inhibitory activity” (Shionogi & Co., Ltd., priority 2015, dated 2019).
